Laboratory results as given in patent US20220409526A1 (Retina Foundation Of The Southwest, priority 2019, published 2022).

How the values were obtained:
Format in all cases: cell-based, human
ARPE-19 cells [1] = test: GSH assay (Promega GSH/GSSG-Glo); details: 1 mM for 24 hours
Method: The production of cellular GSH levels upon exposure to drugs were measured using the GSH assay kit. NACA and GSH-EE were used as controls in this assay. ARPE-19 cells were grown in white 96 well plates. The cells were exposed to 1 mM solutions of NAC, NACME, NACEE, NACPE, NACBE, NACA and glutathione ethyl ester (GSH-EE) for 24 hours. The solutions were removed and washed with PBS once. Afterwards, GSH assay was carried out according to manufacturer recommended protocol (Promega GSH/GSSG-Glo™) and luminescence readings were obtained with a luminometer, which a higher luminescence intensity indicates a higher GSH concentration.

[2] = system: mitochondrial DNA of ARPE-19 cells; test: DNA fragmentation assay (long-extension PCR of mitochondrial DNA); details: pretreatment for 24 hours (1 mM), then 500 uM HQ for 24 hours
Method: Mitochondrial DNA damage has been linked to pathogenic diseases, including AMD. To determine if pretreatment of RPE cells with NAC alkyl-ester analogues could protect mitochondrial DNA against oxidative damage, a long-extension PCR based assay was used to measure amplification of a large stretch of mitochondrial DNA. The mitochondrial DNA damage assay was performed according to protocols known to those in the art (see Santos, J. H.; Mandavilli, B. S.; Van Houten, B., Measuring Oxidative mtDNA Damage and Repair Using Quantitative PCR. In Mitochondrial DNA: Methods and Protocols, Copeland, W. C., Ed. Humana Press: Totowa, N.J., 2002; pp 159-176). Briefly, ARPE-19 cells were grown to confluency in 6-well plates. The cells were treated with NAC alkyl-ester analogues for 24 hours, washed and then treated with 500 uM HQ for an additional 24 hours. DNA was isolated from the treated cells with a QIAamp DNA mini kit (Qiagen). The DNA samples were diluted to 3 ng/μl for use in PCR reactions. PCR products were quantified using the Quant-iT Picogreen dsDNA Assay kit (Invitrogen). The relative amplification of the large band was normalized to untreated cells. The amplification of the small mitochondrial band was used to normalize the data obtained from the large band to account for mitochondrial DNA copy number.

ARPE-19 cells [3] = test: in vitro; details: then 500 μM HQ for 16 hours
Method: ARPE-19 cells were grown in DMEM:F-12 supplemented with 10% fetal bovine serum (FBS). For all experiments these cells were split and grown in 6-well plates using MEM-Nic supplemented with 1% FBS according to a previously published procedure.^33 Cells used for all the experiments were between passages 25-30. For all experiments, the 96 well plates and 8-well slides were coated with 0.039 mg/mL collagen I at 6 μg/cm^2. The cells were seeded at a cell density of 70,000 cells/well and 150,000 cells/well using MEM-Nic media for 96 well plates and 8 well slides, respectively. Once the cells are confluent, media was replaced with MEM a, GlutaMAX™, supplemented with 1% FBS for 24 hours before carrying out assay protocols. Exposure to NAC alkyl-ester prodrugs were carried out in MEM a, GlutaMAX™, supplemented with 1% FBS and treatment with HQ was carried out in serum free DMEM:F-12.
ARPE-19 Cell viability assays were carried out using XTT/PMS reagent mixtures according to standard procedures known in the art (see Celis, J. E.; Carter, N., Cell Biology: A Laboratory Handbook. Elsevier Science: 2005). Corresponding absorbance readings were obtained using a plate reader at 450 and 660 nm.
A dose dependent study was first carried out for ARPE-19 cells using HQ concentrations varying from 100-1000 μM. Cells were then incubated at 37° C., 5% CO2 for 16 hours. HQ doses of less than 400 μM were non-lethal. Using 500 μM HQ for 16 hours gave a cell viability of ˜60%.
To evaluate the ability of the NAC alkyl-ester analogues to provide cellular protection against oxidative stress, cells were treated with 0.05 mM of NAC, NACME, NACEE, NACPE and NACBE for 2, 24 and 48 hours. Treated cells were then exposed to 500 μM HQ for 16 hours. HQ solutions were removed and replaced with DMEM:F-12 supplemented with 1% FBS, and followed by the addition of XTT (2,3-bis-(2-methoxy-4-nitro-5-sulfophenyl)-2H-tetrazolium-5-carboxanilide) and PMS (phenazine methyl sulfate).
To compare the effectiveness of NACBE and NAC in protecting against oxidative damage, another dose dependent study was carried out by varying the pretreatment concentration from 0.001 mM to 1.0 mM. […] Whereas for NAC, to reach the same cell viability, 0.5 mM concentration was needed (10× times that of NACBE).

ARPE-19 cells [4] = test: ZO-1 staining of cellular junctions
Method: ARPE-19 cells were grown on an 8-well slide until confluent. The cells were exposed to 1 mM NAC and NACBE for 24 hours, followed by treatment with 500 μM of HQ for 2 hours. The cells were washed with 3 cycles of PBS, and then fixed with 4% Paraformaldehyde at 4° C. for 30 mins. After fixation the cells were blocked in PBST (0.2% Triton X-100)+1% BSA for 60 mins. Primary antibody (rabbit anti-Zo-1, Invitrogen) was diluted 1/100 in PBST+1% BSA and added overnight at […]. Cells were washed ×3 with PBS and secondary antibody (Donkey anti-Rabbit AF-555, Abcam) was added for 4 hours at RT. Cells were washed ×3 with PBS and mounted with Prolong Diamond Mountant with DAPI (Invitrogen).

ARPE-19 cells [5] = test: CellTiter-Glo assay (ATP); details: 1 mM pretreatment, then 500 μM HQ for 3, 6 and 8 hours
Method: ARPE-19 cells were grown in white 96 well plates. The cells were first exposed to 500 μM of HQ for 3, 6 and 8 hours and the amount of ATP produced was measured using the CellTiter-Glo assay kit to obtain a time dependent response (FIG. 15). […] Due to the mitochondrial damage caused by HQ, the production of ATP was decreased.

## CCCCOC(=O)[C@H](CS)NC(C)=O [NACBE, N-acetylcysteine butyl ester]
ARPE-19 cells [1]
  cellular GSH level (luminescence) compared to untreated cells: produced the highest amounts of GSH
[2]
  protection of mitochondrial DNA amplification against HQ: keep the PCR amplification of the mitochondrial DNA intact
ARPE-19 cells [3]; 0.05 mM pretreatment for 24 and 48 hours, compared to NAC and the control
  change in cell viability upon exposure to HQ: comparatively a higher cell viability
ARPE-19 cells [3]; 0.05 mM pretreatment for 2 hours
  change in cell viability upon exposure to HQ: marginal effect
ARPE-19 cells [3]; pretreatment 0.001-1.0 mM for 24 hours
  pretreatment concentration at which 100% cell viability was obtained: 0.05 mM
ARPE-19 cells [4]; 1 mM for 24 hours, without HQ
  ZO-1 staining of cell-cell junctions: proper cell-cell junctions
ARPE-19 cells [4]; 1 mM pretreatment for 24 hours, then 500 μM HQ for 2 hours
  ZO-1 staining of cellular junctions after exposure to HQ: intact
ARPE-19 cells [5]
  ATP production after HQ insult: ATP production remained unaltered
